Measurements reported in article PMC9894841, “Characterisation of a cyclic peptide that binds to the RAS binding domain of phosphoinositide 3-kinase p110α” (Scientific Reports, 2023).
“And” between values parts separate entries of the source, which are not always exact repeats. Equal values may be shown once. “Also recorded” adds a separate entry of the source. Residues, ends and D or L forms follow the SMILES beside them.

Assays:
GST-RBDα/KRAS = target: T1, GST-RBDα/KRAS (Homo sapiens, UniProt P42336); experiment: GST-RBDα/KRAS reverse two-hybrid system (RTHS), SICLOPPS screen; type: cell-based, E. coli; conditions: arabinose induced expression of the cyclic peptide
T1 construct: we created a fusion of the RBD (amino acids 133 – 314) with GST; expressed in transfected cells; host or cells: E. coli strain SNS126 (cassette integrated via pAH68)
T1 sequence (P42336 133-314): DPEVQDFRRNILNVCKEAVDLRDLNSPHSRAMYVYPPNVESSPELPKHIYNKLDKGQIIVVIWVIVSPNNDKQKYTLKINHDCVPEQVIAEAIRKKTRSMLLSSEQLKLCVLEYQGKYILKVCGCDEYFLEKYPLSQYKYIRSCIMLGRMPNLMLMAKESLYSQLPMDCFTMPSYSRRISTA
Description: The SICLOPPS technique as previously published is based on two steps: first, building a reverse two-hybrid system (RTHS) that expresses the target protein complex in bacteria as a screening platform and second, the production of a genetically encoded cyclic peptide library[25]–[29]. […] Also, the expression of the full length p110α needs to be in association with the regulatory subunit p85α in order to achieve a stable protein dimer, which makes it a large and complex protein to express in bacteria. In a successful RTHS system, the engineered bacterial cell line should show a reduction of growth on selective media upon induction of expression of the target protein complex with increasing isopropyl β-d-1-thiogalactopyranoside (IPTG)[27]–[29]. […] We hypothesised that this could be due to a lack of solubility of RBDα, a previously described feature of the RBDs of p110 proteins. Therefore, we designed another RTHS carrying a GST fusion tag at the N-terminus of the RBDα (GST-RBDα/KRAS RTHS).
We used the GST-RBDα/KRAS RTHS to screen a CXXXXX (where X is any of the 20 canonical amino acids) SICLOPPS plasmid library of 3.2 million genetically encoded cyclic hexapeptides. The cyclic peptides contain an invariant cysteine and five other amino acids that are each equally distributed between the twenty possibilities. Thus, each SICLOPPS plasmid contains a different sequence representing a unique peptide.
Due to the lack of solubility of the p110α-RBD we created a fusion of the RBD (amino acids 133 – 314) with GST (Glutathione S-transferase) by PCR amplification, to produce a recombinant protein of GST-RBD (hereafter RBD). Both KRAS (amino acids 1–168—lacking the Hyper Variable Region) and the RBD were cloned into the pTHCP14 vector that contains two bacteriophage repressors P22 and 434, producing a cassette that consists of two fusion proteins—KRAS with 434 and RBD with P22. This cassette was then sub-cloned into the CRIM integration plasmid pAH68—for integration into E. coli strain SNS126 that contains the chimeric P22 and 434 operators. When expressed, the interaction of KRAS with the RBD brings together the P22 and the 434 repressors to form a dimer that will interact with the chimeric P22 and 434 operators—resulting in no growth on selective media.
The SICLOPPS library was generated by PCR amplification using degenerate primers encoding cyclo-CXXXXX hexapeptides (where X is any amino acid), producing around 3.2 million compounds. The SICLOPPS RTHS formation, cyclic peptide production and library screening were followed as described[24],[25],[46].

p110α (p110α/p85α) = p110α (p110α/p85α) (Homo sapiens, UniProt P42336); experiment: Microscale thermophoresis (MST) binding to labelled p110α/p85α; conditions: for Kd: labelled protein 100 nM, 25 °C; for increase in affinity for p110α over cyclo-CRVLAA: MST
p110α (p110α/p85α), sequence (P42336 whole entry, species assumed): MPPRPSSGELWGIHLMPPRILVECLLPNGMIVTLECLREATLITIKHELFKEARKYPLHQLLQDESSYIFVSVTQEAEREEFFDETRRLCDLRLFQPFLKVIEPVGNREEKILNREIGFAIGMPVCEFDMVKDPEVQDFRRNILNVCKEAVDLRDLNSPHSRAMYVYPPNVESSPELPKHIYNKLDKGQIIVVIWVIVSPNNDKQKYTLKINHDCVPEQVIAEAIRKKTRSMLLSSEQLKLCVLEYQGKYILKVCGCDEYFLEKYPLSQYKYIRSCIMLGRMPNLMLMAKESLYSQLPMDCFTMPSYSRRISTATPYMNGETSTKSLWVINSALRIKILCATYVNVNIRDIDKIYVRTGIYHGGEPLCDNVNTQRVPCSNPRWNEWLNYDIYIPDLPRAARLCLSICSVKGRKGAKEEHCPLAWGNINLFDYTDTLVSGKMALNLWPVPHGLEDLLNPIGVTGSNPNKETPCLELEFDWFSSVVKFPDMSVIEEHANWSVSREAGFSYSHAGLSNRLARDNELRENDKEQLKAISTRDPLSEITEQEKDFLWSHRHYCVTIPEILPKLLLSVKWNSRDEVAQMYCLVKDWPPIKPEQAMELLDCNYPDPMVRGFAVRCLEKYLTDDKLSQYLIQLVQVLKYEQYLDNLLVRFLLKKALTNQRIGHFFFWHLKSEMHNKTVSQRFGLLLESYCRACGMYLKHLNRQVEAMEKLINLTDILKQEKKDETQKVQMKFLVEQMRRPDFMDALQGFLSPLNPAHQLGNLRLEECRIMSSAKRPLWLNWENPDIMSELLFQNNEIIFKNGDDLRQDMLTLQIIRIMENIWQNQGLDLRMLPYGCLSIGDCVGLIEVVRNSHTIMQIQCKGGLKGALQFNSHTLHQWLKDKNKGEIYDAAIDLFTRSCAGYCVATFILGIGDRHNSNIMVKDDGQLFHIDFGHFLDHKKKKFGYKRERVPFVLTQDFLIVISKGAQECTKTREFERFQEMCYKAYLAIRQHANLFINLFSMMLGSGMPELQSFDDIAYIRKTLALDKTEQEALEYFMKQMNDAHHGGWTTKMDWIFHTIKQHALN
p110α (p110α/p85α), sequence (P27986 whole entry partner, species assumed): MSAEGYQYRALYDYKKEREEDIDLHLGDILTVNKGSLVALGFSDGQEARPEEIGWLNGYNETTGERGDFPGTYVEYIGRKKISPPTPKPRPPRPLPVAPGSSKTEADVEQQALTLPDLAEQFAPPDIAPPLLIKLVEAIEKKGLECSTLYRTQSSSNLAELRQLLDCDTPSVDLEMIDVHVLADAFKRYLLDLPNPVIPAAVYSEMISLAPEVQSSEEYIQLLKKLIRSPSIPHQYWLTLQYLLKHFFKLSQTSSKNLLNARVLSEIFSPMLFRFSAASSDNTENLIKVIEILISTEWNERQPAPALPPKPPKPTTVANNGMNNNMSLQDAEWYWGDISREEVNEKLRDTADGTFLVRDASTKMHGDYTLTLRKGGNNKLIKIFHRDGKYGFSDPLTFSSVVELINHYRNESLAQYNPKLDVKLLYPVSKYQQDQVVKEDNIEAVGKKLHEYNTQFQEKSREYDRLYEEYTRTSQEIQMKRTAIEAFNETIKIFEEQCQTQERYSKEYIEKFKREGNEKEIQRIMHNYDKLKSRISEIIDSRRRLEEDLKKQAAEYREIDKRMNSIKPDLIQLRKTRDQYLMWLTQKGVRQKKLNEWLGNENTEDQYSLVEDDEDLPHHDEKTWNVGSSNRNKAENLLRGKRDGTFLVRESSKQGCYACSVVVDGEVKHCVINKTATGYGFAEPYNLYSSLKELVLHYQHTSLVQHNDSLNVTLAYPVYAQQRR

CRAF-RBD = CRAF-RBD (Homo sapiens, UniProt P04049); experiment: MST binding to CRAF-RBD
CRAF-RBD, sequence (P04049 56-131 limits assumed): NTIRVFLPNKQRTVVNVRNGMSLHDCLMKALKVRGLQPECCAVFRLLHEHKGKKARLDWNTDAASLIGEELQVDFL
Experimental: Measurements were performed using a NanoTemper Monolith™ NT.115 instrument (NanoTemper Technologies GmbH, München, Germany). […] Labelling levels (generally in the range 0.3–0.4 dye molecules per protein molecule) were determined using calculated extinction coefficients for the protein and ε647 = 250,000 M^−1 cm^−1 (or ε495 = 70,000 M^−1 cm^−1) for the dye concentration. In a typical experiment 20 ml aliquots of a 100 nM stock solution of labelled protein were mixed with 20 ml aliquots of a serial dilution of binding partner. These solutions were then loaded into standard treated capillaries and MST measurements were performed at 25 °C using 20–40% LED power and 40–60% IR-Laser power. The laser Laser-On time was 30 s and Laser-Off time 5 s. All measurements were performed at least five times.

[1] = Solubility of the peptides (in words); type: physicochemical
H1792 cells = experiment: Western blot of phospho-AKT / phospho-ERK in H1792 cells; type: cell-based, human; conditions: RPMI 1640 10% FCS, 2, 10 and 50 µM (also 4, 20 and 100 µM), 4 h
Experimental: We treated the human lung cancer cell line H1792, growing at steady-state in Roswell Park Memorial Institute (RPMI) 1640 media with 10% Foetal Calf Serum (FCS), with the seven cyclic peptides at three different concentrations (2, 10 and 50 µM) for 4 h. After treatment we measured the effect of the peptides on the phosphorylation levels of AKT (pAKT-Ser473), a key downstream effector of p110α activity. […] In contrast, the phosphorylation levels of ERK (p-ERK), which is a downstream effector of the RAS/RAF/MEK/ERK pathway and is independent of p110α activity, were not affected.
The next day, 1 ml of medium was removed and the cells were treated with different peptide concentrations for 4 h. All peptides were dissolved in 25 mM Tris pH8, 100 mM NaCl and 1 mM TCEP. Cells were then harvested and lysed for SDS-PAGE and western blot analysis. Anti-calnexin antibody was obtained from Abcam. Antibodies directed against phospho-T202/Y204-ERK, ERK, phospho-S473-AKT and AKT were obtained from Cell Signaling. After western blotting, calnexin, AKT and phospho-AKT signals were quantified using ImageJ and statistical tests were done using Prism software.

| Kd (p110α (p110α/p85α)) | Compound | regrowth of the GST-RBDα/KRAS RTHS on selective media with IPTG (GST-RBDα/KRAS) | further results |
| --- | --- | --- | --- |
| – | CC[C@H](C)[C@@H]1NC(=O)[C@H](C(C)C)NC(=O)[C@H](CS)NC(=O)[C@H](C(C)C)NC(=O)[C@H](C(C)C)NC(=O)[C@H](CC(C)C)NC1=O [cyclo-CVILVV, Cyclo--CVILVV] (cyclo(CVILVV)) | regrowth | – |
| ≥ 140 µM | CC(C)C[C@@H]1NC(=O)[C@H](C(C)C)NC(=O)[C@H](CCCNC(=N)N)NC(=O)[C@H](CS)NC(=O)[C@H](C)NC(=O)[C@H](CCCNC(=N)N)NC1=O [CRVLRA, Cyclo-CRVLRA] (cyclo(CRVLRA)) | – | – |
| 11.8 ± 1.75 µM | CC(C)C[C@@H]1NC(=O)[C@H](C(C)C)NC(=O)[C@H](CCCNC(=N)N)NC(=O)[C@H](CS)NC(=O)[C@H](CC(=O)O)NC(=O)[C@H](C)NC1=O [cyclo-CRVLAD, Cyclo-CRVLAD] | – | increase in affinity for p110α over cyclo-CRVLAA (p110α (p110α/p85α)): 30 fold; binding to CRAF-RBD in words, MST (CRAF-RBD): does not interact; also recorded: did not produce a positive signal of interaction |
| ≥ 817 µM | CC(C)C[C@@H]1NC(=O)[C@H](C(C)C)NC(=O)[C@H](CCCNC(=N)N)NC(=O)[C@H](CS)NC(=O)[C@H](CCC(=O)O)NC(=O)[C@H](C)NC1=O [CRVLAE, Cyclo-CRVLAE] (cyclo(CRVLAE)) | – | – |
| ≥ 476 µM | CC(C)C[C@@H]1NC(=O)[C@H](C(C)C)NC(=O)[C@H](CCCNC(=N)N)NC(=O)[C@H](CS)NC(=O)[C@H](C)NC(=O)[C@H](CC(=O)O)NC1=O [CRVLDA, Cyclo-CRVLDA] (cyclo(CRVLDA)) | – | – |
| ≥ 1210 µM | CC(C)C[C@@H]1NC(=O)[C@H](C(C)C)NC(=O)[C@H](CCCNC(=N)N)NC(=O)[C@H](CS)NC(=O)[C@H](C)NC(=O)[C@H](CCC(=O)O)NC1=O [CRVLEA, Cyclo-CRVLEA] (cyclo(CRVLEA)) | – | – |
| – | CC(C)C[C@@H]1NC(=O)[C@H](Cc2ccc(O)cc2)NC(=O)[C@H](CC(C)C)NC(=O)[C@H](CC(C)C)NC(=O)[C@H](Cc2c[nH]c3ccccc23)NC(=O)[C@H](CS)NC1=O [cyclo-CWLLYL, Cyclo-CWLLYL] (cyclo(CWLLYL)) | regrowth | – |
| – | CSCC[C@@H]1NC(=O)[C@H](CS)NC(=O)[C@H](CCCNC(=N)N)NC(=O)CNC(=O)CNC(=O)[C@H](CO)NC1=O [cyclo-CMSGGR, Cyclo-CMSGGR] (cyclo(CMSGGR)) | regrowth | – |
| – | CC(C)C[C@@H]1NC(=O)[C@H](CS)NC(=O)[C@H](Cc2c[nH]c3ccccc23)NC(=O)[C@H](Cc2c[nH]c3ccccc23)NC(=O)[C@H](Cc2ccc(O)cc2)NC(=O)[C@H](Cc2c[nH]c3ccccc23)NC1=O [cyclo-CLWYWW, Cyclo-CLWYWW] (cyclo(CLWYWW)) | regrowth | – |
| – | CC(C)C[C@@H]1NC(=O)[C@H](CS)NC(=O)[C@H](Cc2ccc(O)cc2)NC(=O)[C@H](Cc2c[nH]c3ccccc23)NC(=O)[C@H](Cc2c[nH]c3ccccc23)NC(=O)[C@H](C(C)C)NC1=O [cyclo-CLVWWY, Cyclo-CLVWWY] (cyclo(CLVWWY)) | regrowth | – |
| ≥ 360 µM and ~360 µM | CC(C)C[C@@H]1NC(=O)[C@H](C(C)C)NC(=O)[C@H](CCCNC(=N)N)NC(=O)[C@H](CS)NC(=O)[C@H](C)NC(=O)[C@H](C)NC1=O [cyclo-CRVLAA, Cyclo-CRVLAA] | – | binding to p110α in words, MST (p110α (p110α/p85α)): weak binding; also recorded: interacted weakly; solubility in words [1]: most soluble of these |
| – | CC(C)C[C@@H]1NC(=O)[C@H](C(C)C)NC(=O)[C@H](CCCNC(=N)N)NC(=O)[C@H](CS)NC(=O)[C@H](CCCNC(=N)N)NC(=O)[C@H](C)NC1=O [cyclo-CRVLAR, Cyclo-CRVLAR] (cyclo(ARCRVL)) | – | increase in affinity for p110α over cyclo-CRVLAA (p110α (p110α/p85α)): tenfold |
| – | CC(C)C[C@@H]1NC(=O)[C@H](C(C)C)NC(=O)[C@H](CCCNC(=N)N)NC(=O)[C@H](CS)NC(=O)[C@H](CCCNC(=N)N)NC(=O)[C@H]([C@@H](C)O)NC1=O [cyclo-CRVLTR, Cyclo-CRVLTR] (cyclo(CRVLTR)) | – | effect on phospho-AKT (pAKT-Ser473) levels (H1792 cells): mild effect |
| – | CC(C)C[C@@H]1NC(=O)[C@H](CCCCN)NC(=O)[C@H](CS)NC(=O)[C@H](CC(C)C)NC(=O)[C@H](C(C)C)NC(=O)[C@H](C(C)C)NC1=O [cyclo-CKLVVL, Cyclo-CKLVVL] (cyclo(CKLVVL)) | regrowth | – |
| – | Cyclo-CAWCGR | regrowth | – |
| – | CC[C@H](C)[C@@H]1NC(=O)[C@H](CCCNC(=N)N)NC(=O)[C@H](CS)NC(=O)[C@H]([C@@H](C)CC)NC(=O)[C@H](C(C)C)NC(=O)[C@H](C(C)C)NC1=O [cyclo-CRIVVI, Cyclo-CRIVVI] (cyclo(CRIVVI)) | regrowth | – |
